Data on 9 compounds can be found in patent US9839642B2, “Beta-tetrazolyl-propionic acids as metallo-beta-lactamase inhibitors” (priority 2014, dated 2017).

Usually IC50 stands for the midpoint of a concentration-inhibition curve.

In test [1] the test system is Klebsiella pneumoniae expressing VIM-1 (IHMA599644). As to the kind of experiment: Antibiotic potentiation activity: synergistic concentration (MITC95) with imipenem, growth by OD600. In kind it is cell-based. The essentials: (§1)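 Colonies from overnight agar plates (35 °C) were suspended in saline and diluted 1:100 into 1.1× CAMHB. Inhibitor (final 200 μM to 0.195 μM) was combined with imipenem at 1 or 4 μg/ml, incubated 22–24 h at 35 °C, and absorbance read; MITC95 is the lowest inhibitor concentration giving 95% growth inhibition.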

Test [2] has as its system Serratia marcescens expressing IMP-1 (CL5741). The description is as above. Type of test: cell-based. The essentials: as §1
Test [3] relates to Escherichia coli expressing NDM-1 (CLB30005). The description is as above. In kind it is cell-based. The essentials:
as §1

The subject of test [4] is Escherichia coli expressing NDM-1 (CLB30016). The test is described as above. In kind it is cell-based. As to conditions: 95% inhibition of bacterial growth, strain CLB30016. The essentials: as §1
Another test deals with NDM-1 (Klebsiella pneumoniae, UniProt C7C422). As to the kind of experiment: Enzyme activity: determination of IC50, fluorescence assay with CCF2-FA substrate. In kind it is biochemical. To be noted: CCF2-FA 1.25 μM, 2 hours at 25° C., read-out: NDM1 IC50. Summed up: (§2)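 Final enzyme levels differed by target: 1 pM NDM-1, 2 pM IMP-1, 30 pM VIM-1. Each was incubated 2 hours at 25° C with test compound and 1.25 μM CCF2-FA, and 460 nm fluorescence (405 nm excitation) was fitted by 4-parameter curve to obtain IC50.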

A further test deals with VIM-1 (Pseudomonas aeruginosa, UniProt A0A0F7KYQ8). Described as above. In kind it is biochemical. To be noted: CCF2-FA 1.25 μM, 2 hours at 25° C., read-out: VIM1 IC50. Summed up: as §2
In another test the target is IMP-1 (Serratia marcescens, UniProt P52699). The description is as above. In kind it is biochemical. As to conditions: CCF2-FA 1.25 μM, 2 hours at 25° C., read-out: IMP1 IC50. The essentials: as §2
Setting [5] is: 95% inhibition of bacterial growth, strain IHMA599644.
Where [6] appears, read: 95% inhibition of bacterial growth, strain CL5741.
The mark [7] stands for this setting: 95% inhibition of bacterial growth, strain CLB30005.
[8] abbreviates: K. pneumoniae IHMA599644 (VIM-1), 95% inhibition of growth.
Where [9] appears, read: S. marcescens CL5741 (IMP-1), 95% inhibition of growth.
The mark [10] stands for this setting: E. coli CLB30005 (NDM-1), 95% inhibition of growth.

Like-named read-outs stand apart in the source and are kept apart here.

IMP-1, sequence (P52699 19-246, looked up, species assumed): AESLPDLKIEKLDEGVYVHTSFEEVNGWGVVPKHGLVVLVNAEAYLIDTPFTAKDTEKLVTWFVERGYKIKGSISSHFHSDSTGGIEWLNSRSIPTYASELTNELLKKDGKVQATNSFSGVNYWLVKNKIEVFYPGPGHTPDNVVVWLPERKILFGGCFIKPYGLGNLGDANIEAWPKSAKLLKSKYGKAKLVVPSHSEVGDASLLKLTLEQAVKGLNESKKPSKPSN
NDM-1, sequence (C7C422 29-270, looked up, species assumed): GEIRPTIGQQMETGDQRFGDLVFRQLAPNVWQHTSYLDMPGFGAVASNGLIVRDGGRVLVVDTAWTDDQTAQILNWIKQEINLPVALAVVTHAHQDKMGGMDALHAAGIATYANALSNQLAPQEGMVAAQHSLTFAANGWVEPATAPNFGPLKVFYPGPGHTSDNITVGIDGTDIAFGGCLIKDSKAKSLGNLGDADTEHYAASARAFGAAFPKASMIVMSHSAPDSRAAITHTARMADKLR

With `CCC[C@H](C(=O)O)[C@H](Cc1ccc(-c2ccc(N3CCNCC3)nc2)cc1)c1nn[nH]n1` [Example 199, (2S)-2-[(1S)-2-[4-(6-piperazin-1-ylpyridin-3-yl)phenyl]-1-(2H-tetrazol-5-yl)ethyl]pentanoic acid], the “VIM1 KP599644 MITC95” value in test [1] (setting [5]) turned out to be 31 µM. Also, in test [2] (setting [6]), the “IMP1 SM5741 MITC95” value was found to be 17 µM. Besides, in test [3] (setting [7]), the “NDM1 EC30005 MITC95” value turned out to be 4.7 µM. Further, the “NDM1 EC30016 MITC95” value in test [4] came to 9.4 µM. In addition, the IC50 at NDM-1 (enzyme 1 pM) is 0.048 µM; at VIM-1 (enzyme 30 pM), 0.0074 µM; at IMP-1 (enzyme 2 pM) it was 0.11 µM.

`CCC[C@H](C(=O)O)[C@H](Cc1ccc(-c2ccc(CN)cc2)cc1)c1nn[nH]n1` [Example 209, (2S)-2-[(1S)-2-[4′-(aminomethyl)biphenyl-4-yl]-1-(2H-tetrazol-5-yl)ethyl]pentanoic acid]: in test [1] (setting [5]), the “VIM1 KP599644 MITC95” value was 12.5 µM. Moreover, the “IMP1 SM5741 MITC95” value in test [2] (setting [6]) was found to be 4.3 µM. Moreover, the “NDM1 EC30005 MITC95” value in test [3] (setting [7]) amounted to 2.3 µM. Further, in test [4], the “NDM1 EC30016 MITC95” value came out at 6.2 µM. The half-maximal inhibitory concentration (IC50) on NDM-1 (enzyme 1 pM) was 0.084 µM; on VIM-1 (enzyme 30 pM), 0.014 µM; at IMP-1 (enzyme 2 pM) it was 0.11 µM.

Regarding `CCC[C@H](C(=O)O)[C@H](Cc1ccc(CN2CCN(C)CC2)cc1)c1nn[nH]n1` [Example 251, (2S)-2-[(1S)-2-{4-[(4-methylpiperazin-1-yl)methyl]phenyl}-1-(2H-tetrazol-5-yl)ethyl]pentanoic acid], the “VIM1 KP599644 MITC95” value in test [1] (setting [8]) turned out to be 75 µM. Moreover, the “IMP1 SM5741 MITC95” value in test [2] (setting [9]) worked out at 38 µM. Besides, the “NDM1 EC30005 MITC95” value in test [3] (setting [10]) was 8.3 µM. Moreover, the half-maximal inhibitory concentration (IC50) on NDM-1 (NDM-1 enzyme 1 pM) turned out to be 0.33 µM; at VIM-1 (VIM-1 enzyme 30 pM) it was 0.43 µM; on IMP-1 (IMP-1 enzyme 2 pM), 1.3 µM.

On to `CCC[C@H](C(=O)O)[C@H](Cc1ccc(COCCN2CCOCC2)cc1)c1nn[nH]n1` [Example 252, (2S)-2-[(1S)-2-{4-[(2-morpholin-4-ylethoxy)methyl]phenyl}-1-(2H-tetrazol-5-yl)ethyl]pentanoic acid], for which the “VIM1 KP599644 MITC95” value in test [1] (setting [8]) stood at 50 µM. For the same compound, in test [2] (setting [9]), the “IMP1 SM5741 MITC95” value is 150 µM. Moreover, in test [3] (setting [10]), the “NDM1 EC30005 MITC95” value is 15 µM. Also, the IC50 on NDM-1 (NDM-1 enzyme 1 pM) was determined as 0.18 µM; on VIM-1 (VIM-1 enzyme 30 pM), 0.089 µM; on IMP-1 (IMP-1 enzyme 2 pM), 0.8 µM.

With `CCC[C@H](C(=O)O)[C@H](Cc1ccc(CCN2CCCC2=O)cc1)c1nn[nH]n1` [Example 253, (2S)-2-[(1S)-2-{4-[2-(2-oxopyrrolidin-1-yl)ethyl]phenyl}-1-(2H-tetrazol-5-yl)ethyl]pentanoic acid], in test [1] (setting [8]), the “VIM1 KP599644 MITC95” value turned out to be 50 µM. The “IMP1 SM5741 MITC95” value in test [2] (setting [9]) turned out to be 38 µM. The “NDM1 EC30005 MITC95” value in test [3] (setting [10]) amounted to 12.5 µM. Moreover, the IC50 at NDM-1 (NDM-1 enzyme 1 pM) is 0.034 µM; at VIM-1 (VIM-1 enzyme 30 pM), 0.0091 µM; on IMP-1 (IMP-1 enzyme 2 pM) it was 0.097 µM.

For the compound `CCC[C@H](C(=O)O)[C@H](Cc1ccc(CCCO)cc1)c1nn[nH]n1` [Example 254, (2S)-2-[(1S)-2-[4-(3-hydroxypropyl)phenyl]-1-(2H-tetrazol-5-yl)ethyl]pentanoic acid], the “VIM1 KP599644 MITC95” value in test [1] (setting [8]) worked out at 25 µM. For the same compound, in test [2] (setting [9]), the “IMP1 SM5741 MITC95” value is 31 µM. Further, the “NDM1 EC30005 MITC95” value in test [3] (setting [10]) came to 5.2 µM. Moreover, the concentration for half-maximal inhibition (IC50) was 0.037 µM on NDM-1 (NDM-1 enzyme 1 pM), 0.009 µM on VIM-1 (VIM-1 enzyme 30 pM) and 0.18 µM on IMP-1 (IMP-1 enzyme 2 pM).

Turning to `CCC[C@H](C(=O)O)[C@H](Cc1ccc(CCC(O)CO)cc1)c1nn[nH]n1` (stereo partly drawn) [Example 255, (2S)-2-[(1S)-2-[4-(3,4-dihydroxybutyl)phenyl]-1-(2H-tetrazol-5-yl)ethyl]pentanoic acid], in test [1] (setting [8]), the “VIM1 KP599644 MITC95” value was determined as 50 µM. Besides, in test [2] (setting [9]), the “IMP1 SM5741 MITC95” value stood at 18.8 µM. Moreover, the “NDM1 EC30005 MITC95” value in test [3] (setting [10]) came to 10.4 µM. The results for the IC50 at NDM-1 (NDM-1 enzyme 1 pM), on VIM-1 (VIM-1 enzyme 30 pM) and on IMP-1 (IMP-1 enzyme 2 pM) were 0.044 µM, 0.012 µM and 0.19 µM, respectively.

In the case of `CCC[C@H](C(=O)O)[C@H](Cc1ccc(CCN2CCCCC2=O)cc1)c1nn[nH]n1` [Example 256, (2S)-2-[(1S)-2-{4-[2-(2-oxopiperidin-1-yl)ethyl]phenyl}-1-(2H-tetrazol-5-yl)ethyl]pentanoic acid], the “VIM1 KP599644 MITC95” value in test [1] (setting [8]) is 150 µM. Moreover, in test [2] (setting [9]), the “IMP1 SM5741 MITC95” value came out at 6.2 µM. For the same compound, the “NDM1 EC30005 MITC95” value in test [3] (setting [10]) amounted to 10.4 µM. Besides, the IC50 came to 0.027 µM on NDM-1 (NDM-1 enzyme 1 pM), 0.016 µM on VIM-1 (VIM-1 enzyme 30 pM) and 0.045 µM at IMP-1 (IMP-1 enzyme 2 pM).

For the compound `CCC[C@H](C(=O)O)[C@H](Cc1ccc(C[C@@H]2CCCOC2)cc1)c1nn[nH]n1` [Example 257, (2S)-2-[(1S)-2-{4-[(3S)-tetrahydro-2H-pyran-3-ylmethyl]phenyl}-1-(2H-tetrazol-5-yl)ethyl]pentanoic acid], the “VIM1 KP599644 MITC95” value in test [1] (setting [8]) was determined as 200 µM. In test [2] (setting [9]), the “IMP1 SM5741 MITC95” value amounted to 6.2 µM. Besides, the “NDM1 EC30005 MITC95” value in test [3] (setting [10]) was 7.3 µM. Moreover, the IC50 worked out at 0.013 µM at NDM-1 (NDM-1 enzyme 1 pM), 0.014 µM at VIM-1 (VIM-1 enzyme 30 pM) and 0.033 µM on IMP-1 (IMP-1 enzyme 2 pM).
